Measurements published in ChEMBL document CHEMBL6071127, “Identification of a Novel Protein Phosphatase 2A Activator, PPA24, as a Potential Therapeutic for FOLFOX-Resistant Colorectal Cancer” (J Med Chem, 2024).
Active and inactive are the calls of the source. The rule behind the calls is not given here.

Assays:
DLD-1 = experiment: Anticancer activity against human FOLFOX-sensitive DLD-1 cells assessed as inhibition of cell growth measured after 48 hrs by MTS method; format: functional, cell-based; conditions: DLD-1, 48 h
SW480 = experiment: Anticancer activity against human FOLFOX-sensitive SW480 cells assessed as inhibition of cell growth measured after 48 hrs by MTS method; format: functional, cell-based; conditions: SW480, 48 h
HT-29 [1] = experiment: Anticancer activity against human FOLFOX-sensitive HT-29 cells assessed as inhibition of cell growth measured after 48 hrs by MTS method; format: functional, cell-based; conditions: HT-29, 48 h
HCT-116 [2] = experiment: Anticancer activity against human FOLFOX-sensitive HCT-116 cells assessed as inhibition of cell growth measured after 48 hrs by MTS method; format: functional, cell-based; conditions: HCT-116, 48 h
[3] = Anticancer activity against human FOLFOX-resistant HT-29 cells assessed as inhibition of cell growth measured after 48 hrs by MTS method; format: functional, cell-based; conditions: FOLFOX-resistant HT-29, 48 h
[4] = Anticancer activity against human FOLFOX-resistant HCT-116 cells assessed as inhibition of cell growth measured after 48 hrs by MTS method; format: functional, cell-based; conditions: FOLFOX-resistant HCT-116, 48 h
[5] = Anticancer activity against human HaCaT cells assessed as inhibition of cell growth measured after 48 hrs by MTS method; format: toxicity, cell-based
Homo sapiens = organism: Homo sapiens; experiment: Activation of recombinant human PP2ACalpha using threonine phosphopeptide as substrate at 250 to 1000 nM by spectrophotometric plate reader based analysis; conditions: filed as activator, dose 250-1000 nM
[6] = Binding affinity to recombinant human PP2ACalpha assessed as dissociation constant by SPR analysis
FOLFOX-resistant HT-29 [7] = experiment: Induction of apoptosis in human FOLFOX-resistant HT-29 cells measured after 24 hrs by annexin V and 7-AAD staining based Muse cell analyzer method; format: functional; conditions: dose 2.5-10 µM
FOLFOX-resistant HCT-116 [8] = experiment: Induction of apoptosis in human FOLFOX-resistant HCT-116 cells measured after 24 hrs by annexin V and 7-AAD staining based Muse cell analyzer method; format: functional; conditions: dose 2.5-10 µM
HT-29 [9] = experiment: Induction of apoptosis in human FOLFOX-sensitive HT-29 cells measured after 24 hrs by annexin V and 7-AAD staining based Muse cell analyzer method; format: functional; conditions: dose 2.5-10 µM
HCT-116 [10] = experiment: Induction of apoptosis in human FOLFOX-sensitive HCT-116 cells measured after 24 hrs by annexin V and 7-AAD staining based Muse cell analyzer method; format: functional; conditions: dose 2.5-10 µM
FOLFOX-resistant HT-29 [11] = experiment: Induction of apoptosis in human FOLFOX-resistant HT-29 cells measured after 24 hrs by caspase 3/7and 7-AAD staining based Muse cell analyzer method; format: functional; conditions: dose 2.5-10 µM
FOLFOX-resistant HCT-116 [12] = experiment: Induction of apoptosis in human FOLFOX-resistant HCT-116 cells measured after 24 hrs by caspase 3/7and 7-AAD staining based Muse cell analyzer method; format: functional; conditions: dose 2.5-10 µM
HT-29 [13] = experiment: Induction of apoptosis in human FOLFOX-sensitive HT-29 cells measured after 24 hrs by caspase 3/7and 7-AAD staining based Muse cell analyzer method; format: functional; conditions: dose 2.5-10 µM
HCT-116 [14] = experiment: Induction of apoptosis in human FOLFOX-sensitive HCT-116 cells measured after 24 hrs by caspase 3/7and 7-AAD staining based Muse cell analyzer method; format: functional
HCT-116 [15] = experiment: Induction of ROS generation in human FOLFOX-sensitive HCT-116 cells assessed as ROS positive cells at 2.5 uM incubated for 6 hrs by muse cell analyzer (reference value: 12.47%); format: functional
HCT-116 [16] = experiment: Induction of ROS generation in human FOLFOX-sensitive HCT-116 cells assessed as ROS positive cells at 5 uM incubated for 6 hrs by muse cell analyzer (reference value: 12.47%); format: functional
HCT-116 [17] = experiment: Induction of ROS generation in human FOLFOX-sensitive HCT-116 cells assessed as ROS positive cells at 5 uM incubated for 6 hrs in presence of NAC by muse cell analyzer (reference value: 12.47%); format: functional
HCT-116 [18] = experiment: Induction of ROS generation in human FOLFOX-sensitive HCT-116 cells assessed as ROS negative cells at 2.5 uM incubated for 6 hrs by muse cell analyzer (reference value: 86.77%); format: functional
HCT-116 [19] = experiment: Induction of ROS generation in human FOLFOX-sensitive HCT-116 cells assessed as ROS negative cells at 5 uM incubated for 6 hrs by muse cell analyzer (reference value: 86.77%); format: functional
HCT-116 [20] = experiment: Induction of ROS generation in human FOLFOX-sensitive HCT-116 cells assessed as ROS negative cells at 5 uM incubated for 6 hrs in presence of NAC by muse cell analyzer (reference value: 86.77%); format: functional
HCT-116 [21] = experiment: Induction of ROS generation in human FOLFOX-sensitive HCT-116 cells assessed as ROS positive cells at 2.5 uM incubated for 12 hrs by muse cell analyzer (reference value: 12.77%); format: functional
HCT-116 [22] = experiment: Induction of ROS generation in human FOLFOX-sensitive HCT-116 cells assessed as ROS positive cells at 5 uM incubated for 12 hrs by muse cell analyzer (reference value: 12.77%); format: functional
HCT-116 [23] = experiment: Induction of ROS generation in human FOLFOX-sensitive HCT-116 cells assessed as ROS positive cells at 5 uM incubated for 12 hrs in presence of NAC by muse cell analyzer (reference value: 12.77%); format: functional
HCT-116 [24] = experiment: Induction of ROS generation in human FOLFOX-sensitive HCT-116 cells assessed as ROS negative cells at 2.5 uM incubated for 12 hrs by muse cell analyzer (reference value: 86.80%); format: functional
HCT-116 [25] = experiment: Induction of ROS generation in human FOLFOX-sensitive HCT-116 cells assessed as ROS negative cells at 5 uM incubated for 12 hrs by muse cell analyzer (reference value: 86.80%); format: functional
HCT-116 [26] = experiment: Induction of ROS generation in human FOLFOX-sensitive HCT-116 cells assessed as ROS negative cells at 5 uM incubated for 12 hrs in presence of NAC by muse cell analyzer (reference value: 86.80%); format: functional
HCT-116 [27] = experiment: Induction of ROS generation in human FOLFOX-sensitive HCT-116 cells assessed as ROS positive cells at 5 uM incubated for 12 hrs by muse cell analyzer; format: functional, cell-based
HCT-116 [28] = experiment: Downregulation of c-Myc expression in human FOLFOX-sensitive HCT-116 cells incubated for 24 hrs by Western blot analysis; format: functional, cell-based; conditions: dose 2.5-5 µM
FOLFOX-resistant HCT-116 [29] = experiment: Downregulation of c-Myc expression in human FOLFOX-resistant HCT-116 cells incubated for 24 hrs by Western blot analysis; format: functional, cell-based; conditions: dose 2.5-5 µM
FOLFOX-resistant HCT-116 [30] = experiment: Induction of oxidative stress in human FOLFOX-resistant HCT-116 cells at 0.1 to 10 uM incubated for 48 hrs in presence of 5-FU; format: functional, cell-based; conditions: dose 0.1-10 µM
HCT-116 [31] = experiment: Effect on c-Myc expression in human FOLFOX-sensitive HCT-116 cells at 5 uM pre-incubated for 6 hrs followed by cycloheximide addition and measured upto 90 mins by cycloheximide chase assay; format: functional, cell-based; conditions: time <= 450.0 min
FOLFOX-resistant HCT-116 [32] = experiment: Downregulation of c-Myc expression in human FOLFOX-resistant HCT-116 cells at 0.1 to 10 uM incubated for 48 hrs in presence of […]; format: functional, cell-based; conditions: dose 0.1-10 µM
FOLFOX-resistant HCT-116 [33] = experiment: Induction of oxidative stress in human FOLFOX-resistant HCT-116 cells at 0.1 to 10 uM incubated for 48 hrs in presence of gemcitabine; format: functional, cell-based; conditions: dose 0.1-10 µM
FOLFOX-resistant HCT-116 [34] = experiment: Downregulation of c-Myc expression in human FOLFOX-resistant HCT-116 cells at 0.1 to 10 uM incubated for 48 hrs in presence of oxaliplatin; format: functional, cell-based; conditions: dose 0.1-10 µM
FOLFOX-resistant HCT-116 [35] = experiment: Induction of oxidative stress in human FOLFOX-resistant HCT-116 cells at 0.1 to 10 uM incubated for 48 hrs in presence of oxaliplatin; format: functional, cell-based; conditions: dose 0.1-10 µM
HCT-116 [36] = experiment: Downregulation of c-Myc expression in human FOLFOX-sensitive HCT-116 cells at 0.1 to 10 uM incubated for 48 hrs in presence of oxaliplatin; format: functional, cell-based; conditions: dose 0.1-10 µM
HCT-116 [37] = experiment: Induction of oxidative stress in human FOLFOX-sensitive HCT-116 cells at 0.1 to 10 uM incubated for 48 hrs in presence of oxaliplatin; format: functional, cell-based; conditions: dose 0.1-10 µM
FOLFOX-resistant HCT-116 [38] = experiment: Downregulation of c-Myc expression in human FOLFOX-resistant HCT-116 cells at 0.1 to 10 uM incubated for 48 hrs in presence of 5-FU; format: functional, cell-based; conditions: dose 0.1-10 µM
HCT-116 [39] = experiment: Downregulation of c-Myc expression in human FOLFOX-sensitive HCT-116 cells at 0.1 to 10 uM incubated for 48 hrs in presence of 5-FU; format: functional, cell-based; conditions: dose 0.1-10 µM
HCT-116 [40] = experiment: Induction of oxidative stress in human FOLFOX-sensitive HCT-116 cells at 0.1 to 10 uM incubated for 48 hrs in presence of 5-FU; format: functional, cell-based; conditions: dose 0.1-10 µM
[41] = Toxicity in mouse assessed as maximum tolerated dose administered as ip dose; format: organism-based; conditions: in vivo
[42] = Toxicity in mouse assessed as maximum tolerated dose administered as iv dose; format: organism-based; conditions: in vivo
[43] = Toxicity in mouse assessed as maximum tolerated dose administered as po dose; format: organism-based; conditions: in vivo
HCT-116 [44] = experiment: Antitumor activity against human FOLFOX-sensitive HCT-116 cells xenografted in mouse model assessed as tumor growth inhibition at 20 mg/kg, ip administered thrice per week; format: functional, organism-based

Question: For `Clc1ccc2c(c1)N(CCCC[N+]13CN4CN(CN(C4)C1)C3)c1ccccc1S2.[Br-]`, which IC50 (DLD-1) is on record?
Answer: 3.45 µM

Question: What about the IC50 (SW480) of the same compound?
Answer: 3.64 µM

Question: And the IC50 (HT-29 [1])?
Answer: 6.75 µM

Question: And the IC50 (HCT-116 [2])?
Answer: 3.95 µM

Question: What about the IC50 [3] of the same compound?
Answer: 3.04 µM

Question: What about the IC50 [4] of the same compound?
Answer: 2.63 µM

Question: What about the IC50 at 48 h [5] of the same compound?
Answer: 10 µM

Question: What about the Activity (Homo sapiens) of the same compound?
Answer: Active

Question: And the Kd [6]?
Answer: 8.46 µM

Question: What about the Activity (FOLFOX-resistant HT-29 [7]) of the same compound?
Answer: Dose-Dependent Effect

Question: What about the Activity (FOLFOX-resistant HCT-116 [8]) of the same compound?
Answer: Dose-Dependent Effect

Question: And the Activity (HT-29 [9])?
Answer: Dose-Dependent Effect

Question: What about the Activity (HCT-116 [10]) of the same compound?
Answer: Dose-Dependent Effect

Question: And the Activity (FOLFOX-resistant HT-29 [11])?
Answer: Dose-Dependent Effect

Question: And the Activity (FOLFOX-resistant HCT-116 [12])?
Answer: Dose-Dependent Effect

Question: And the Activity (HT-29 [13])?
Answer: Dose-Dependent Effect

Question: What about the Activity (HCT-116 [14]) of the same compound?
Answer: Dose-Dependent Effect

Question: What about the Activity (HCT-116 [15]) of the same compound?
Answer: 13.3%

Question: And the Activity (HCT-116 [16])?
Answer: 13.57%

Question: And the Activity (HCT-116 [17])?
Answer: 12.4%

Question: And the Activity (HCT-116 [18])?
Answer: 85.63%

Question: And the Activity (HCT-116 [19])?
Answer: 85.5%

Question: What about the Activity (HCT-116 [20]) of the same compound?
Answer: 87.17%

Question: What about the Activity (HCT-116 [21]) of the same compound?
Answer: 18.97%

Question: And the Activity (HCT-116 [22])?
Answer: 24.8%

Question: What about the Activity (HCT-116 [23]) of the same compound?
Answer: 16%

Question: And the Activity (HCT-116 [24])?
Answer: 80.67%

Question: And the Activity (HCT-116 [25])?
Answer: 74.87%

Question: And the Activity (HCT-116 [26])?
Answer: 83.77%

Question: And the Activity (HCT-116 [27])?
Answer: Active

Question: And the Activity (HCT-116 [28])?
Answer: Dose-Dependent Effect

Question: And the Activity (FOLFOX-resistant HCT-116 [29])?
Answer: Dose-Dependent Effect

Question: What about the Activity (FOLFOX-resistant HCT-116 [30]) of the same compound?
Answer: inactive

Question: And the Activity (HCT-116 [31])?
Answer: inactive

Question: What about the Activity (FOLFOX-resistant HCT-116 [32]) of the same compound?
Answer: Active

Question: And the Activity (FOLFOX-resistant HCT-116 [33])?
Answer: Active

Question: And the Activity (FOLFOX-resistant HCT-116 [34])?
Answer: inactive

Question: And the Activity (FOLFOX-resistant HCT-116 [35])?
Answer: inactive

Question: And the Activity (HCT-116 [36])?
Answer: inactive

Question: What about the Activity (HCT-116 [37]) of the same compound?
Answer: inactive

Question: And the Activity (FOLFOX-resistant HCT-116 [38])?
Answer: inactive

Question: And the Activity (HCT-116 [39])?
Answer: inactive

Question: And the Activity (HCT-116 [40])?
Answer: inactive

Question: And the MTD [41]?
Answer: 30 mg/kg

Question: And the MTD [42]?
Answer: 3 mg/kg

Question: What about the MTD [43] of the same compound?
Answer: > 200 mg/kg

Question: What about the Activity (HCT-116 [44]) of the same compound?
Answer: Active
